What all share (assay): inhibition of tumour cell growth, NCI panel, 48 h
The test system of experiment [1] is RPMI-8226 leukemia.
Experiment [2] relates to SK-MEL-28 melanoma.
Experiment [3] deals with HOP-92 NSCLC.
For experiment [4], the system named is SW-620 colon.
Experiment [5] concerns SF-539 CNS.
The test system of experiment [6] is SK-OV-3 ovarian.
Experiment [7] deals with SN12C renal.
The subject of experiment [8] is SF-268 CNS.
Experiment [9] deals with SNB-19 CNS.
The test system of experiment [10] is CCRF-CEM leukemia.

The source of these data is PubChem BioAssay (NCI).

Values joined by “and” are separate entries in the source; they are usually repeats but may differ in a detail not shown here. Equal values may be shown once.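 Step 1: Grow cells in 96-well plates. Step 2: Expose to compound for 48 hours at 5 concentrations. Step 3: Interpolate endpoints linearly; if unreached, use highest concentration. GI50: concentration for 50% inhibition of growth. TGI: total growth inhibition.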

For `NCC(=O)OCN1C(=O)C2C3C=CC(C2C1=O)C1C2C(=O)N(COC(=O)CN)C(=O)C2C31` (stereo not given), the TGI is 72.5 µM and 59.7 µM in experiment [1]; 35.3 µM and 40.8 µM in [2]; above 100 µM in experiment [3]; 44.7 µM and 54.2 µM in experiment [4]; 68.9 µM and 38.2 µM in experiment [5]; above 100 µM in experiment [6]. Moreover, the TGI in experiment [7] is 48.4 µM and 50.7 µM; in experiment [8] it was 41.1 µM and 48.6 µM; in experiment [9], above 100 µM; in [10] it was 52.6 µM and 49.8 µM.

As to `O=C(O)C1(C(=O)O)CCN(S(=O)(=O)c2ccccc2)CC1`, the TGI in [1], in experiment [2], in experiment [3], in [4], in experiment [5] and in experiment [6] was above 100 µM each time. Also, the TGI in [7], in experiment [8], in experiment [9] and in [10] was above 100 µM each time.

As to `COC(=O)/C=C\C1C(C(=O)OC)C2(C(=O)OC)CCC1(C(=O)OC)N2` (stereo not given), the TGI was 26.4 µM in experiment [1]; 26.4 µM in experiment [2]; 19.6 µM in experiment [3]; 9.38 µM in [4]; 32 µM in experiment [5]; 31.9 µM in experiment [6]. Moreover, the TGI in experiment [7] came to 29.9 µM; in experiment [8], 44.5 µM; in experiment [9], 23.8 µM; in [10], 21.8 µM.

`COC(=O)c1c(C(=O)OC)c(C(=O)OC)c(C(=O)OC)c1C(=O)OC`: the TGI in experiment [1], in [2], in experiment [3], in experiment [4], in experiment [5] and in experiment [6] was above 100 µM throughout. For the same molecule, the TGI in experiment [7], in experiment [8], in [9] and in [10] was above 100 µM each time.

In the case of `COc1cc(C)c(N(C)C(=O)CN(C)C)cc1Nc1nc(Nc2cccc(F)c2C(N)=O)c2cc[nH]c2n1`, the GI50 in experiment [1] was above 22 µM; in [2], above 25 µM; in [3], 0.645 µM; in [4], above 22.4 µM; in experiment [5], above 25 µM; in [6], above 25 µM. In addition, the GI50 in [7] was above 25 µM; in experiment [8], above 25 µM; in experiment [9] it was above 25 µM; in [10], above 19.3 µM. Moreover, the TGI in experiment [1] is above 25 µM; in experiment [2] it was above 25 µM; in experiment [3] it was 16.2 µM; in experiment [4] it was above 25 µM; in [5] it was above 25 µM; in [6] it was above 25 µM. The TGI in experiment [7], in experiment [8], in [9] and in experiment [10] was above 25 µM each time.

For `CC(=O)[CH-]C(=O)c1ccccc1.CC(=O)[CH-]C(=O)c1ccccc1.[O-]c1ccc(O)cc1.[O-]c1ccc(O)cc1.[Ti+4]`, the GI50 in [1] was 5.63 µM; in experiment [2], 18.6 µM; in [3], 14.1 µM; in [4], 17 µM; in [5], 11.7 µM; in experiment [6], 24.4 µM. For the same molecule, the GI50 in experiment [7] is 14.3 µM; in experiment [8], 14 µM; in experiment [9], 18.9 µM; in [10] it was 1.91 µM. The TGI in [1] was above 100 µM; in experiment [2], 35.7 µM; in experiment [3], 28.9 µM; in [4], 31.6 µM; in experiment [5], 24.1 µM; in experiment [6] it was 76.8 µM. For the same molecule, the TGI in experiment [7] is 36.4 µM; in experiment [8], 33.9 µM; in experiment [9], 40 µM; in experiment [10], 7.49 µM.

Regarding `CCOc1ccc2c(-c3ccnc(Nc4cccc(C(F)(F)F)c4)n3)cnn2n1`, the GI50 in experiment [1] is above 25 µM; in [2], above 25 µM; in experiment [3], 5.05 µM; in experiment [4], above 25 µM; in experiment [5], 4.92 µM; in [6], 8.11 µM. Moreover, the GI50 in experiment [7] was 15.1 µM; in [8], 7.87 µM; in experiment [9], 13.6 µM; in experiment [10], above 25 µM. The TGI in experiment [1] is above 25 µM; in [2] it was above 25 µM; in experiment [3], 24 µM; in experiment [4], above 25 µM; in [5], 9.63 µM; in experiment [6] it was 18.9 µM. Besides, the TGI is above 25 µM in [7], above 19.6 µM in experiment [8], above 25 µM in experiment [9] and above 25 µM in [10].

As to `COc1cccc2c1C(=O)c1c(O)c3c(c(O)c1C2=O)C[C@@](O)(C(=O)COC(=O)c1cccnc1)C[C@@H]3OC1CC(N)C(O)C(C)O1` (stereo not given in full), the GI50 in experiment [1] was 0.114 µM; in [2], 0.203 µM; in [3], 0.0859 µM; in experiment [4] it was 0.0605 µM; in [5] it was 0.0744 µM; in [6] it was 0.382 µM. The GI50 in [7] was 0.083 µM; in [8] it was 0.155 µM; in experiment [9], 0.0691 µM; in experiment [10], 0.0574 µM. For the same molecule, the TGI in experiment [1] amounted to 0.714 µM; in experiment [2], 0.689 µM; in [3] it was 0.737 µM; in experiment [4], 2.17 µM; in experiment [5], 0.673 µM; in experiment [6], 26 µM. For the same molecule, the TGI was found to be 3.68 µM in experiment [7], 1.53 µM in experiment [8], 2.65 µM in experiment [9] and 1.19 µM in [10].

Regarding `C=C(C)[C@@H]1CC[C@]2(C)[C@H](CC=C3[C@@H]4CC(C)(C)CC[C@]4(C(=O)OC)CC[C@]32C)[C@@]1(C)CC/C(N)=N/O`, the GI50 was 1.95 µM in experiment [1]; 2.3 µM in experiment [2]; 1.42 µM in experiment [3]; 1.88 µM in [4]; 1.8 µM in experiment [5]; 4.62 µM in experiment [6]. Besides, the GI50 is 1.66 µM in experiment [7], 1.96 µM in experiment [8], 2.21 µM in experiment [9] and 2.19 µM in experiment [10]. The TGI worked out at 6.57 µM in experiment [1]; 5.57 µM in experiment [2]; 3.2 µM in experiment [3]; 4.32 µM in experiment [4]; 3.95 µM in experiment [5]; 27.2 µM in [6]. In addition, the TGI was 3.2 µM in experiment [7], 4.76 µM in experiment [8], 5.73 µM in [9] and 6.2 µM in experiment [10].
